Patent US20230046617A1, “METHOD FOR PROMOTING EXPANSION OF HEMATOPOIETIC STEM CELLS AND AGENT FOR USE IN THE METHOD” (FARON PHARMACEUTICALS OY, priority 2020, published 2023)

What was measured:
[1] = system: ROS in human CD34+ BM cells (CD38-CD34+ gated); assay: ROS production (oxidative burst) by DHR-123 and flow cytometry; assay type: cell-based; conditions: 9-day liquid cultures, PMA activation, bone marrow derived HSCs
Protocol: Human CD34^+BM cells were liquid cultured for nine days in StemSpan SFEM medium II (STEMCELL Technologies) containing human stem cell factor (100 ng/ml), FMS-like tyrosine kinase 3 ligand (100 ng/ml), and thrombopoietin (50 ng/ml) (all from Peprotech) with or without LJP-1586. After nine days, the cells were stained with anti-CD38 and anti-CD34 antibodies, washed using DMEM, centrifuged and resuspended in 100 μl DMEM. Then, ROS were detected by DHR-123 reagent (Molecular Probes). For this, DHR-123 was diluted in DMSO and kept as a 5 mM stock solution at −20° C. for single use. […] The cells were then incubated for 10 min at 37° C. and followed by activation with Phorbol 12-myristate 13-acetate (PMA) (Sigma-Aldrich. The stock solution of PMA was frozen at 1 mg/ml in DMSO, freshly thawed and diluted 500 times in order to add 12.5 μl to a final concentration of 200 ng/ml. After 20 min at 37° C., the cells were washed with PBS, resuspended and analyzed by flow cytometry. The red DHR123 turns to green after oxidation. CD38^− and CD34^+ positive cells were gated and fluorescence intensity of oxidized DHR-123 was measured from the filter channel 530 nm/30 nm using LSR Fortessa instrument (BD Biosciences) and analyzed by FlowJo software (Tree Star).

[2] = system: CB-derived HSCs; assay: CFU assay of CB-derived cells expanded in liquid culture; assay type: cell-based, human; conditions: after 15 days liquid culture with LJP-1586 (0.5 μM), then CFU assay with LJP-1586
Protocol: (§1) The progeny of 900 CD38^−CD34^+ cells collected from 15-day-old in vitro cultures, obtained as described above, were grown in methylcellulose-based medium (H4436, STEMCELL Technologies) containing or lacking LJP-1586. After 14 days, single, multilineage, and mixed colonies were visually scored by microscopy. Cryopreserved human CD34^+ cells from AllCells were thawed, resuspended, and counted according to the manufacturer's protocol. Five hundred thawed human BM CD34^+ cells were cultured in complete methylcellulose-based medium (H4436, STEMCELL Technologies) containning or lacking LJP-1586. The total number of colonies was counted at 14 days after plating. Replating was performed twice by harvesting and dissociating cells under sterile conditions.

[3] = system: human umbilical CB-derived HSCs (CD34+CD38-); assay: Liquid culture expansion of umbilical cord blood derived HSCs; assay type: cell-based
Protocol: For human umbilical CB cells, an antibody-based EasySep kit was used to enrich CD34^+CB cells, which were subsequently stained with anti-CD38 and anti-CD34 antibodies. CD38^−CD34^+ cells were sorted using a FACSAria Ilu instrument (BD Biosciences) and then cultured in StemSpan SFEM medium II (STEMCELL Technologies) containing human stem cell factor (100 ng/ml), FMS-like tyrosine kinase 3 ligand (100 ng/ml), and thrombopoietin (50 ng/ml) (all from Peprotech). Cells were seeded at a density of 1×10^3 per ml. LJP-1586 was added immediately after plating when indicated. Cultures were maintained for 21 days, and half the medium was replaced by that containing the same cytokines and LJP-1586 on days 5, 8, 12, 15, and 18. CD34^+ cells from human umbilical CB were isolated via a two-step procedure using Ficoll-Plaque gradient centrifugation (Amersham Pharmacia Biotech, Uppsala, Sweden) and an EasySep Human Cord Blood CD34 Positive Selection Kit II (STEMCELL Technologies). For batch and single cell sorting of VAP-1^+ and VAP-1^− cells from CB we used a Sony SH800 cell sorter with class A2 Level II biosafety cabinet using 130 μm microfluidic sorting chips. This sorter applies low shear stress on cells allowing better survival during cell culture. CD34^+ cells were also sorted into VAP-1^+ and VAP-1^−HSCs (Lineage-CD34+CD38). From these, 100 VAP-1+ and VAP-1−HSCs were then cultured in StemSpan SFEM medium II (STEMCELL Technologies) containing human stem cell factor (100 ng/ml), FMS-like tyrosine kinase 3 ligand (100 ng/ml), and thrombopoietin (50 ng/ml) (all from Peprotech). LJP-1586 was added immediately after plating at a concentration of 1 μM. Cultures were maintained for 20 days. Fresh medium containing the same cytokines and LJP-1586 was added on days 5, 8, 10, 12, 15 and 18. The cells were analysed on days 10 and 15 for CD38−CD34+CD45RA−CD90+ expression using LSR Fortessa instrument (BD Biosciences). Alternatively, a VAP-1 inhibitor szTU73 was used in CB cultures at concentrations 1, 5 and 10 micromolar.

[4] = system: human BM-derived CD34+ cells; assay: CFU assay of human BM-derived CD34+ cells with replating; assay type: cell-based; conditions: LJP-1586 0.5 μM
Protocol: as §1

[5] = system: human CD45+ cells engraftment in the BM of NBSGW mice; assay: In vivo engraftment of sorted human BM cells in non-irradiated NBSGW mice; conditions: VAP-1+ cells in the transfer pool; inhibitor 10 mg/kg i.p. three times a week for six weeks; cut-off 0.1% human CD45+
Text: Human fresh frozen BM CD34+ cells (LONZA) were thawed and stained with APC conjugated mouse anti-Lineage cocktail, PE-Cy7-conjugated anti-CD34 and FITC-conjugated monoclonal antibodies 1B2, TK8-14, and JG-2 against different epitopes of human VAP-1. For batch cell sorting of VAP-1^+/lo and VAP-1^− cells we used a Sony SH800 cell sorter with class A2 Level II biosafety cabinet using 130 μm microfluidic sorting chips. The NBSGW (immune-deficient, c-Kit-deficient) mice not needing irradiation to accept human cells were used as […]. In the VAP-1^− group 19000 cells and in the VAP-1−+VAP-1^+/lo group 16250 VAP-1^− cells and 2750 VAP-1^+/lo cells were intravenously injected per animal. […] Samples were run on LSR fortessa and the data was analyzed with FlowJo. Percentage of chimerism [% chimerism=(% test donor-derived cells)×100/((% test donor-derived cells+(% competitor-derived cells))] was calculated as described (Ema et al., “Adult mouse hematopoietic stem cells: purification and single-cell assays”, Nat Protoc 2006 1(6), 2979-2987).

COc1ccc(C/C(=C/F)CN)cc1.Cl [LJP-1586, Z-3-fluoro-2-(4-methoxybenzyl)allylamine hydrochloride]
ROS reduction (MFI) compared to control cells [1]: 62% | number of CFUs compared to control cultures [2]: 7.9 times | number of primitive HSCs (CD34+CD38-CD45RA-CD90+CD49f+) compared to non-treated cultures ([3]; 1 μM, 15 days, average of three donors): 11 times | HSC expansion compared to control cells ([3]; 1 μM, grown for 18 days): more than 31 times | share of HSCs in gate P-3 that were primitive HSCs ([3]; CD34+CD38-CD45RA-CD90+CD49f+): More than 12% | expansion of VAP-1+ HSCs in long term liquid cultures ([3]; day 20, 1 μM): boosted their expansion | expansion of HSCs at other concentrations ([3]; higher or lower concentrations than 1 μM): less efficient | number of CFUs higher than control cultures after re-plating ([4]; after dissociating and re-plating twice): 92% | number of CFUs higher than control cultures ([4]; first plating, 500 BM CD34+ cells): 33% | mice that accepted the human BM engraftment [5]: 3/3
